{
  "source": "patent US5482954A",
  "about": "“Signal transduction inhibitor triazole and diazole compounds” (priority 1994, dated 1996)",
  "key": {"[1]": {"system": "signal transduction and tumor growth", "assay": "Biological and biochemical assays, summary", "format": "cell-based", "details": "summary of all assays", "from_the_text": "Compound 1 was inhibitory for the biological and biochemical assays."}, "CHOm5 cells [2]": {"system": "CHOm5 cells", "assay": "Carbachol-stimulated arachidonic acid release", "format": "cell-based, Chinese hamster", "from_the_text": "This example illustrates the effect of selected compounds on the release of arachidonic acid from carbachol-stimulated CHOm5 cells. Carbachol is a muscarinic agonist which in the muscarinic receptor transfected CHO cells stimulates the activation of phospholipase A2, resulting in arachidonic acid release and metabolism. Downstream metabolites of arachidonic acid, prostaglandins and leukotrienes are also second messengers.\nThe effect of compound 1 on arachidonic acid release from CHOm5 cells was determined by incubating the cells to isotopic equilibrium with labelled arachidonic acid, then washing the cells twice with 1 mL of serum-free media supplemented with 20 mM HEPES and 0.2% bovine serum albumin (fatty acid free) to trap the unincorporated labelled arachidonic acid, and then simultaneously adding carbachol (100 μM) and increasing concentrations of 1. After 15 min, the reaction was stopped by removing the incubation media which was then centrifuged at 10,000×g to eliminate any nonadherent cells."}, "CHOm5 cells [3]": {"system": "CHOm5 cells", "assay": "Carbachol-stimulated 45Ca2+ influx", "format": "cell-based, Chinese hamster", "design": "% Inhibition of 45Ca2+ Influx into CHOm5 Cells: concentration or dose not given beside the values", "procedure": "Calcium influx was determined using two methods. The first method involved the use of ^45 Ca^2+, while the second method utilized a fluorescent intracellular calcium chelator, Fura-2. The method using Fura-2 is semi-quantitative and is preferred for kinetic analysis and screening whereas the ^45 Ca^2+ method is quantitative.\nCHOm5 cells in monolayer culture were washed free of serum-containing media and incubated with either carbachol or the calcium ionophore A23187 (from Molecular Probes, Eugene, Oreg., USA) in the presence of ^45 Ca^2+ and defined buffer (E2 medium with 0.1 mM MgCl2 and 1.0 mM CaCl2). After incubation for 5 min, the radioactive buffer was rapidly and repeatedly washed off with media containing LaCl3, a competitor of calcium efflux. The cell monolayer was solubilized and the calcium uptake was determined by scintillation counting.\nStimulated uptake of radiolabelled calcium was measured as described above. The abbreviations CTL and CC are control and carbachol-stimulated calcium influx values. respectively."}, "A2058 cells": {"system": "A2058 cells", "assay": "Clonogenic (crystal violet) proliferation assay", "format": "cell-based, human", "details": "0-10 μg/mL, 96 hr", "procedure": "(§1) Proliferation: Two independent methods were used to determine the effect of various compounds on cellular proliferation. The first method utilized [^3 H]thymidine labelling and was performed using A2058, 5R, OVCAR3, and MDA-231 cells. Because the potential effect of compound 1 on thymidine metabolism was unknown, a clonogenic assay was also used. This assay utilized crystal violet nuclear staining.\n(§2) For the clonogenic assay, aliquots of 50,000 cells per well (24 well plates) were grown under standard tissue culture conditions in the presence of increasing doses or test compound (0-10 μg/mL) or vehicle control. After 96 hr, the cells were gently washed with PBS, fixed, and stained with 0.5% crystal violet nuclear stain in 20% methanol. Excess stain was removed with tap water and bound stain was eluted with an equal volume solution of 01N sodium citrate (pH 4.2) and absolute ethanol. Optical density (O.D.) of eluted crystal violet stain was determined at 540 nm. The results of dose-dependent inhibition of tumor cell proliferation by compound 1 are shown in FIG. 5, in which the data are expressed as percent of untreated control cell proliferation for each cell type. The degree of inhibition varied with the cell type and was maximal (76%) for the A2058 cell line."}, "MDA-231 cells": {"system": "MDA-231 cells", "assay": "Clonogenic (crystal violet) proliferation assay", "format": "cell-based, human", "details": "0-10 μg/mL, 96 hr", "procedure": "as §1, §2"}, "OVCAR3 cells": {"system": "OVCAR3 cells", "assay": "Clonogenic (crystal violet) proliferation assay", "format": "cell-based, human", "details": "0-10 μg/mL, 96 hr", "procedure": "as §1, §2"}, "5R cells [4]": {"system": "5R cells", "assay": "Clonogenic (crystal violet) proliferation assay", "format": "cell-based, rat", "details": "0-10 μg/mL, 96 hr", "procedure": "as §1, §2"}, "solid tumor metastasis": {"system": "solid tumor metastasis", "assay": "Phase I clinical study, tumor response", "format": "in vivo, human", "from_the_text": "This example illustrates the effect of compound 1 on tumor growth and metastasis when administered orally to seven patients in an FDA approved phase I clinical study.\n(§3) Seven patients with solid tumor metastasis are undergoing treatment via oral administration of compound 1 under the FDA approved phase I clinical study. Table J provides data on the patients' response to this treatment. PT# is patient number. Response is the sum of the products of bidirectional measurements. No measurement means that while the disease was evaluable, it was not measureable. The concentration of the drug in the blood of the patients is well within the range which inhibits signal transduction in vitro and which inhibits tumor growth in vitro and in animals."}, "5R cells [5]": {"system": "5R cells", "assay": "Oral treatment, prevention of experimental metastasis", "format": "in vivo, nude mice", "procedure": "Finally, compound 1 was tested for efficacy in prevention of the formation and growth of experimental metastases. Oral administration of compound 1 or PEG-400 vehicle to nude mice was carried out for 5 days. On day 6, untreated 5R cells (10^4) were introduced into the animals by tail vein inoculation. The animals were then randomized into four groups. Two groups of animals which had received only vehicle were subsequently treated with either vehicle (PEG/PEG) or 1 (PEG/1). The other two groups which had been treated with 1 were similarly treated post-inoculation with either vehicle (1/PEG) or 1 (1/1). Treatments were continued for 10 d, after which the lungs were removed and the pulmonary metastases were counted. Histologic confirmation of the fibrosarcoma due to the 5R cells was obtained. […] No toxicity was noted during treatment or at necropsy."}, "[6]": {"assay": "Plasma levels in patients of phase I clinical study", "format": "in vivo", "details": "human, po", "from_the_text": "as §3\nThe concentration of compound 1 in the blood of patient #1 was from 1-2 μg/mL, while that of the other three patients was >3 μg/mL (>7 μM). These concentrations are well within the range which inhibit signal transduction in vitro and which inhibit tumor growth in animals."}, "[7]": {"details": "patient 1, melanoma, 100 mg/m^2 qod"}, "[8]": {"details": "patient 2, colon, 100 mg/m^2 qd"}, "[9]": {"details": "patient 4, ovary, 100 mg/m^2 qd"}},
  "note": "Values joined by “and” are separate entries in the source; they are usually repeats but may differ in a detail not shown here. Equal values may be shown once. Read-outs that look alike come from different tables or passages of the source.",
  "data": [
    {"smiles": "NC(=O)c1nnn(Cc2cc(Cl)c(C(=O)c3ccc(Cl)cc3)c(Cl)c2)c1N", "note": "[Compound 1]", "values": [
      {"measurement": "inhibition in the biological and biochemical assays", "setting": "[1]", "result": "inhibitory"},
      {"measurement": "IC50", "setting": "CHOm5 cells [2]; Cricetulus griseus, 0.25 h, carbachol 100 μM, 15 min", "result": "5.2 ± 0.8", "unit": "µM"},
      {"measurement": "Arachidonic Acid Release (% of Control)", "setting": "CHOm5 cells [2]; Table K", "result": "50.9 ± 9 % of Control"},
      {"measurement": "IC50", "setting": "CHOm5 cells [3]; Cricetulus griseus, FIG. 12, carbachol", "result": "0.935 ± 0.018", "unit": "µM"},
      {"measurement": "% Inhibition of 45Ca2+ Influx into CHOm5 Cells", "setting": "CHOm5 cells [3]; Table I, carbachol-stimulated", "result": 74, "unit": "%"},
      {"measurement": "maximal inhibition of tumor cell proliferation", "setting": "A2058 cells", "result": 76, "unit": "%"},
      {"measurement": "inhibition of tumor cell proliferation", "setting": "MDA-231 cells", "result": "dose dependent inhibition of tumor cell proliferation"},
      {"measurement": "inhibition of tumor cell proliferation", "setting": "OVCAR3 cells", "result": "dose dependent inhibition of tumor cell proliferation"},
      {"measurement": "inhibition of tumor cell proliferation", "setting": "5R cells [4]", "result": "dose dependent inhibition of tumor cell proliferation"},
      {"measurement": "RESPONSE", "setting": "solid tumor metastasis; [7]", "result": "Stable"},
      {"measurement": "RESPONSE (sum of products of bidirectional measurements)", "setting": "solid tumor metastasis; [7]", "result": "+8%"},
      {"measurement": "inhibition of growth rate (cm^2 /day)", "setting": "solid tumor metastasis; patient 1, metastasis lesion #1, X-ray", "result": 79, "unit": "%"},
      {"measurement": "inhibition of growth rate (cm^2 /day)", "setting": "solid tumor metastasis; patient 1, metastasis lesion #2, X-ray", "result": 59, "unit": "%"},
      {"measurement": "suppression and regression of colon cancer metastases", "setting": "solid tumor metastasis; patient 2", "result": "suppression and regression of 3 of 3 colon cancer metastases"},
      {"measurement": "RESPONSE", "setting": "solid tumor metastasis; [8]", "result": "Stable"},
      {"measurement": "RESPONSE (sum of products of bidirectional measurements)", "setting": "solid tumor metastasis; [8]", "result": -22, "unit": "%"},
      {"measurement": "RESPONSE", "setting": "solid tumor metastasis; patient 3, colon, 100 mg/m^2 qd", "result": "Stable"},
      {"measurement": "RESPONSE", "setting": "solid tumor metastasis; [9]", "result": "Stable"},
      {"measurement": "RESPONSE (sum of products of bidirectional measurements)", "setting": "solid tumor metastasis; [9]", "result": -21, "unit": "%"},
      {"measurement": "RESPONSE", "setting": "solid tumor metastasis; patient 5, lung, 200 mg/m^2 qod", "result": "Stable"},
      {"measurement": "RESPONSE", "setting": "solid tumor metastasis; patient 6, carcinoid, 200 mg/m^2 qod", "result": "Stable"},
      {"measurement": "RESPONSE", "setting": "solid tumor metastasis; patient 7, colon, 200 mg/m^2 qod", "result": "Progres-"},
      {"measurement": "toxicity", "setting": "5R cells [5]; during treatment or at necropsy", "result": "No toxicity"},
      {"measurement": "metastatic colonization", "setting": "5R cells [5]; given prior to tumor cell injection", "result": "prevented metastatic colonization as effectively as when 1 was administered only after tumor cell inoculation or when given continuously"},
      {"measurement": "number of pulmonary metastases", "setting": "5R cells [5]; treatment prior to, post, or prior to and post inoculation", "result": "statistically significantly inhibited"},
      {"measurement": "Cmax", "setting": "[6]; 100 mg/m^2, patient 1, melanoma, 100 mg/m^2 qod, oral, read-out: PEAK LEVEL", "result": 1250, "unit": "ng/mL"},
      {"measurement": "Cmax", "setting": "[6]; 100 mg/m^2, patient 2, colon, 100 mg/m^2 qd, oral, read-out: PEAK LEVEL", "result": 3610, "unit": "ng/mL"},
      {"measurement": "Cmax", "setting": "[6]; 100 mg/m^2, patient 3, colon, 100 mg/m^2 qd, oral, read-out: PEAK LEVEL", "result": 3530, "unit": "ng/mL"},
      {"measurement": "Cmax", "setting": "[6]; 100 mg/m^2, patient 4, ovary, 100 mg/m^2 qd, oral, read-out: PEAK LEVEL", "result": 3080, "unit": "ng/mL"},
      {"measurement": "Cmax", "setting": "[6]; 200 mg/m^2, patient 5, lung, 200 mg/m^2 qod, oral, read-out: PEAK LEVEL", "result": 1770, "unit": "ng/mL"},
      {"measurement": "Cmax", "setting": "[6]; 200 mg/m^2, patient 6, carcinoid, 200 mg/m^2 qod, oral, read-out: PEAK LEVEL", "result": 1340, "unit": "ng/mL"},
      {"measurement": "Cmax", "setting": "[6]; 200 mg/m^2, patient 7, colon, 200 mg/m^2 qod, oral, read-out: PEAK LEVEL", "result": 2830, "unit": "ng/mL"},
      {"measurement": "Cmax", "setting": "[6]; other three patients of FIG. 19, read-out: concentration in the blood (peak/steady state)", "result": "> 3000 ng/mL and > 7 µM"},
      {"measurement": "Cmax", "setting": "[6]; patient #1, read-out: concentration in the blood (peak/steady state)", "result": "1000 to 2000", "unit": "ng/mL"}
    ]}
  ]
}
